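A five-concentration, 48-hour dose response in 96-well plates underlies each endpoint, interpolated linearly between surrounding concentrations. GI50: concentration for 50% inhibition of growth. Definition used: TGI = concentration required for complete inhibition of growth.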
Tests used:
Assay in all cases: inhibition of tumour cell growth, NCI panel, 48 h
SF-539 CNS = test system: SF-539 CNS
HL-60(TB) leukemia = test system: HL-60(TB) leukemia
UO-31 renal = test system: UO-31 renal
MDA-MB-435 = test system: MDA-MB-435
SF-268 CNS = test system: SF-268 CNS
EKVX NSCLC = test system: EKVX NSCLC
RXF 393 renal = test system: RXF 393 renal
NCI-H23 lung = test system: NCI-H23 lung
MALME-3M melanoma = test system: MALME-3M melanoma
SW-620 colon = test system: SW-620 colon
M14 melanoma = test system: M14 melanoma
K-562 leukemia = test system: K-562 leukemia
A549 NSCLC = test system: A549 NSCLC
OVCAR-3 ovarian = test system: OVCAR-3 ovarian
LOX IMVI melanoma = test system: LOX IMVI melanoma
OVCAR-4 ovarian = test system: OVCAR-4 ovarian
MCF7 breast = test system: MCF7 breast
NCI-H522 lung = test system: NCI-H522 lung
SR leukemia = test system: SR leukemia
CCRF-CEM leukemia = test system: CCRF-CEM leukemia
SNB-75 CNS = test system: SNB-75 CNS
OVCAR-8 ovarian = test system: OVCAR-8 ovarian
U251 CNS = test system: U251 CNS
NCI-H226 lung = test system: NCI-H226 lung
A498 renal = test system: A498 renal
UACC-257 melanoma = test system: UACC-257 melanoma
KM12 colon = test system: KM12 colon
SK-MEL-28 melanoma = test system: SK-MEL-28 melanoma
HCT-15 colon = test system: HCT-15 colon
786-0 renal = test system: 786-0 renal
SF-295 CNS = test system: SF-295 CNS
RPMI-8226 leukemia = test system: RPMI-8226 leukemia
HCC-2998 colon = test system: HCC-2998 colon
CAKI-1 renal = test system: CAKI-1 renal
HOP-62 NSCLC = test system: HOP-62 NSCLC
OVCAR-5 ovarian = test system: OVCAR-5 ovarian
IGROV1 ovarian = test system: IGROV1 ovarian
T-47D breast = test system: T-47D breast
SNB-19 CNS = test system: SNB-19 CNS
COLO 205 colon = test system: COLO 205 colon
SK-MEL-2 melanoma = test system: SK-MEL-2 melanoma
PC-3 prostate = test system: PC-3 prostate
SK-MEL-5 melanoma = test system: SK-MEL-5 melanoma
DU-145 prostate = test system: DU-145 prostate
SN12C renal = test system: SN12C renal
NCI/ADR-RES ovarian = test system: NCI/ADR-RES ovarian
HCT-116 colon = test system: HCT-116 colon
HT29 colon = test system: HT29 colon
ACHN renal = test system: ACHN renal
MDA-MB-231 breast = test system: MDA-MB-231 breast
SK-OV-3 ovarian = test system: SK-OV-3 ovarian
NCI-H460 lung = test system: NCI-H460 lung
HS 578T breast = test system: HS 578T breast
MOLT-4 leukemia = test system: MOLT-4 leukemia
TK-10 renal = test system: TK-10 renal
UACC-62 melanoma = test system: UACC-62 melanoma

COc1ccc2c(c1)/C(=N/OC(C)=O)c1c-2c(Nc2cccc(/C(C)=N/OC(C)=O)c2)nc2ccccc12
GI50 (SF-539 CNS): 63.9 µM
TGI (SF-539 CNS): > 100 µM
GI50 (HL-60(TB) leukemia): > 100 µM
TGI (HL-60(TB) leukemia): > 100 µM
GI50 (UO-31 renal): > 100 µM
TGI (UO-31 renal): > 100 µM
GI50 (MDA-MB-435): > 100 µM
TGI (MDA-MB-435): > 100 µM
GI50 (SF-268 CNS): 39 µM
TGI (SF-268 CNS): > 100 µM
GI50 (EKVX NSCLC): 21.9 µM
TGI (EKVX NSCLC): 53.1 µM
GI50 (RXF 393 renal): 13.4 µM
TGI (RXF 393 renal): 40.7 µM
GI50 (NCI-H23 lung): 35 µM
TGI (NCI-H23 lung): > 100 µM
GI50 (MALME-3M melanoma): 96.4 µM
TGI (MALME-3M melanoma): > 100 µM
GI50 (SW-620 colon): 47.5 µM
TGI (SW-620 colon): > 100 µM
GI50 (M14 melanoma): > 100 µM
TGI (M14 melanoma): > 100 µM
GI50 (K-562 leukemia): 37.9 µM
TGI (K-562 leukemia): > 100 µM
GI50 (A549 NSCLC): 31.1 µM
TGI (A549 NSCLC): > 100 µM
GI50 (OVCAR-3 ovarian): 56.5 µM
TGI (OVCAR-3 ovarian): > 100 µM
GI50 (LOX IMVI melanoma): 67.7 µM
TGI (LOX IMVI melanoma): > 100 µM
GI50 (OVCAR-4 ovarian): 86.6 µM
TGI (OVCAR-4 ovarian): > 100 µM
GI50 (MCF7 breast): 85.1 µM
TGI (MCF7 breast): > 100 µM
GI50 (NCI-H522 lung): 35 µM
TGI (NCI-H522 lung): > 100 µM
GI50 (SR leukemia): 94.4 µM
TGI (SR leukemia): > 100 µM
GI50 (CCRF-CEM leukemia): 84.6 µM
TGI (CCRF-CEM leukemia): > 100 µM
GI50 (SNB-75 CNS): 30.9 µM
TGI (SNB-75 CNS): 64.5 µM
GI50 (OVCAR-8 ovarian): 17 µM
TGI (OVCAR-8 ovarian): 58.4 µM
GI50 (U251 CNS): 32.4 µM
TGI (U251 CNS): > 100 µM
GI50 (NCI-H226 lung): 86.3 µM
TGI (NCI-H226 lung): > 100 µM
GI50 (A498 renal): 57.3 µM
TGI (A498 renal): > 100 µM
GI50 (UACC-257 melanoma): 36.2 µM
TGI (UACC-257 melanoma): > 100 µM
GI50 (KM12 colon): 48.9 µM
TGI (KM12 colon): > 100 µM
GI50 (SK-MEL-28 melanoma): > 100 µM
TGI (SK-MEL-28 melanoma): > 100 µM
GI50 (HCT-15 colon): > 100 µM
TGI (HCT-15 colon): > 100 µM
GI50 (786-0 renal): 37 µM
TGI (786-0 renal): > 100 µM
GI50 (SF-295 CNS): 29.9 µM
TGI (SF-295 CNS): > 100 µM
GI50 (RPMI-8226 leukemia): 64.6 µM
TGI (RPMI-8226 leukemia): > 100 µM
GI50 (HCC-2998 colon): 70.8 µM
TGI (HCC-2998 colon): > 100 µM
GI50 (CAKI-1 renal): 27.3 µM
TGI (CAKI-1 renal): 55.9 µM
GI50 (HOP-62 NSCLC): 37.6 µM
TGI (HOP-62 NSCLC): > 100 µM
GI50 (OVCAR-5 ovarian): > 100 µM
TGI (OVCAR-5 ovarian): > 100 µM
GI50 (IGROV1 ovarian): 47.5 µM
TGI (IGROV1 ovarian): > 100 µM
GI50 (T-47D breast): 37.3 µM
TGI (T-47D breast): > 100 µM
GI50 (SNB-19 CNS): 55.4 µM
TGI (SNB-19 CNS): > 100 µM
GI50 (COLO 205 colon): > 100 µM
TGI (COLO 205 colon): > 100 µM
GI50 (SK-MEL-2 melanoma): 59.1 µM
TGI (SK-MEL-2 melanoma): > 100 µM
GI50 (PC-3 prostate): 21.1 µM
TGI (PC-3 prostate): 41.5 µM
GI50 (SK-MEL-5 melanoma): 60.2 µM
TGI (SK-MEL-5 melanoma): > 100 µM
GI50 (DU-145 prostate): 29.5 µM
TGI (DU-145 prostate): 85.6 µM
GI50 (SN12C renal): 48.8 µM
TGI (SN12C renal): > 100 µM
GI50 (NCI/ADR-RES ovarian): 55.3 µM
TGI (NCI/ADR-RES ovarian): > 100 µM
GI50 (HCT-116 colon): 41.5 µM
TGI (HCT-116 colon): > 100 µM
GI50 (HT29 colon): > 100 µM
TGI (HT29 colon): > 100 µM
GI50 (ACHN renal): 21.4 µM
TGI (ACHN renal): 61 µM
GI50 (MDA-MB-231 breast): > 100 µM
TGI (MDA-MB-231 breast): > 100 µM
GI50 (SK-OV-3 ovarian): > 100 µM
TGI (SK-OV-3 ovarian): > 100 µM
GI50 (NCI-H460 lung): 97.4 µM
TGI (NCI-H460 lung): > 100 µM
GI50 (HS 578T breast): 40.3 µM
TGI (HS 578T breast): > 100 µM
GI50 (MOLT-4 leukemia): 25.8 µM
TGI (MOLT-4 leukemia): 62.6 µM
GI50 (TK-10 renal): 77.6 µM
TGI (TK-10 renal): > 100 µM
GI50 (UACC-62 melanoma): > 100 µM
TGI (UACC-62 melanoma): > 100 µM
